# Key:
# Type in all cases: physicochemical
# [1] = Distribution of lutein and MDG in cream, aqueous and pellet layers after 100,000×g (Example 58); conditions: 100,000×g for 1 hour; wt % of the nutritional composition
# Procedure: A study was conducted to investigate the distribution of lutein and MDG within the nutritional compositions. Sample were prepared using homogenization at 150/20 bar, and then centrifuged at 100,000×g for 1 hour. The different layers (e.g., cream, aqueous, and pellet) were then analyzed for the presence of lutein and MDG.
# [2] = Centrifugation/ultrafiltration analysis of lutein and MDG distribution (Example 60); conditions: centrifugation at 100,000×g
# Procedure: A study was conducted to further investigate the distribution of lutein and MDG within the nutritional composition. Samples included MDG/lutein/water; MDG/lutein/NFDM/water; MDG/lutein/WPC/water; and MDG/water.
# The premixes were provided as follows: in samples that contained lutein, lutein was heated for 2 h at 50° C. with shaking. […] In samples that contained protein, non-fat dried milk was added to water (50-60° C.) with agitation and allowed to hydrate for approximately 10 min.
# The samples were prepared as follows: for solution 1, water was heated to 50-60° C., an lutein in GMO-40 blend and turrax (30 sec 10000 rpm) was added; for solution 2, NFDM was placed in water solution heated to 50-60° C., and lutein was added in GMO-40 blend and turrax (30 sec 10000 rpm); for solution 3, water was heated to 50-60° C., and GMO-40 blend and turrax (30 sec 10000 rpm) was added. The solutions are listed in the table below as X.1, wherein 1 is the solution.
# Samples were formulated as detailed above, and then characterized by ultrafiltration with various membranes, as well as ultracentrifuged at various times and speed (e.g., 100,000×g, 4,500×g, and 1,000×g). The details of the different centrifugation/filtration method are listed below. […]
# [3] = Bound lipophile index (SEC peak area ratio 280 nm/214 nm); conditions: Example 35 model systems
# Procedure: The size exclusion chromatography (SEC) system used in the following Examples is as follows: Column: Superdex Peptide 10/300 GL, GE Healthcare P/N 17-5176-01; Mobile Phase: 700 mL Milli-Q Plus water, 300 mL acetonitrile; 1.0 mL trifluoroacetic acid; Flow Rate: 0.4 mL/minute; Temperature: ambient (˜21° C.); Detection: UV light at 214 nm, 280 nm; visible light at 476 nm; Injection: 10 μL; Run Time: 70 minutes; Sample Preparation: dilute 0.6-1.1 g to 10 mL with Mobile Phase; Calibration: by 6 purified reference proteins, 14.2-160 kD.
# The bound lipophile index is determined as follows: a non-specific indicator of lipophilic nutrients (including lutein and any combination of other oil soluble vitamins) in the high MW protein peak (described above). […]
# A study was conducted to evaluate the effect of relative centrifugal force (RCF) on analyzing the high molecular weight lutein assembly in the aqueous phase. […] The compositions were then assessed for high molecular weight lutein assembly and the presence of protein >137 kD as done above, as well as bound lipophile index. Bound lipophile index, a relative marker for of lipophilic nutrients in the high molecular weight assembly, was determined as the peak ratio, 280 nm/214 nm for protein >137 kD.
bound lipophile index when choline was present [3],SMILES,present in the aqueous phase following centrifugation [1],lutein in the aqueous phase ([2]; samples containing only lutein and MDG),lutein in the aqueous phase ([2]; samples containing protein)
–,CC1=C[C@H](O)CC(C)(C)[C@H]1/C=C/C(C)=C/C=C/C(C)=C/C=C/C=C(C)/C=C/C=C(C)/C=C/C1=C(C)C[C@@H](O)CC1(C)C [lutein],approximately 4 wt %,negligible,only found in the aqueous phase of samples containing protein
decreased,C[N+](C)(C)CCO [choline],–,–,–

# From patent US12628856B2, “Nutritional composition having lipophilic compounds with improved solubility and bioavailability” (Abbott Laboratories, priority 2013, dated 2026)
